Counter-ions that a name gives are not always drawn. Like-named read-outs stand apart in the source and are kept apart here.
Assays:
[1] = result in words; cited from earlier work
[2] = cited from earlier work; for biodegradability in the ZWT: result in words
[3] = cited from earlier work; for biodegradability in the CBT: result in words; for biodegradation in the CBT, test prolonged: prolonged to 40 days
[4] = result in words; cited from earlier work; remark: listed apart in the source
[5] = eight German STPs; cited from earlier work
[6] = result in words; cited from earlier work; remark: listed apart in the source
[7] = result in words; cited from earlier work; remark: listed apart in the source
[8] = computer model, binding to sludge solids; cited from earlier work
[9] = result in words; cited from earlier work; remark: listed apart in the source
[10] = cited from earlier work
[11] = epilimnion of Lake Greifensee; cited from earlier work
[12] = wastewater treatment plant; cited from earlier work
[13] = cited from earlier work; remark: listed apart in the source
fecal coliforms = assay: sulfur dioxide treatment of effluent, Saticoy-Jose Florez Wastewater Treatment Plant; conditions: effluent undergoing sulfur dioxide treatment
Source text: The destruction of odor causing microbes feeding on the water stops further CO2 production, and may be employed where the wastewater treatment plant is mandated to reduce these carbon dioxide emissions. Also, if there is significant carbon in the suspended solids, most perchlorates and chlorates will have been reduced on contact with the solids. The separation and disposal of the solids also removes most of the adsorbed microbes. Under this wastewater treatment scenario, the sulfur dioxide reduction treatment is more for acidification, inactivating of certain chemicals such as Chromium VI susceptible to acid reduction, adding sulfurous and sulfate ions, and chemical dewatering of the solids. […] This disinfection level is suitable in California for gray water land application. Consequently, the sulfur dioxide was used primarily to acid reduce pharmaceuticals, and condition the solids and separated wastewater for land application.

[14] = laboratory-scale activated sludge plants; cited from earlier work
[15] = pilot sewage plant and anoxic biofilm reactor

CN(C/C=C/c1ccccc1)Cc1cccc2ccccc12 [naftifine]
light sensitivity [1]: light sensitive

O=c1[nH]cc(F)c(=O)[nH]1 [5-fluorouracil]
biodegradability in the ZWT [2]: not biodegradable
biodegradability in the CBT [3]: not biodegradable

CC1(C)S[C@@H]2[C@H](NC(=O)Cc3ccccc3)C(=O)N2[C@H]1C(=O)O [penicillin G]
biodegradation in the CBT, test prolonged [3]: 35%
biodegradation in the CBT (removed / biodegraded) ([3]; regular test period, 28 days printed for penicillin G): approximately 27%
biodegradability in the CBT [3]: None of the test compounds met the criteria for ready biodegradability

Oc1ccc(Cl)c2cccnc12 [cloxiquin]
light sensitivity [1]: light sensitive

COCC(=O)Nc1c(I)c(C(=O)NCC(O)CO)c(I)c(C(=O)N(C)CC(O)CO)c1I (stereo not shown) [iopromide]
photodegradation [4]: amenable to photodegradation
degradation or absorption during sewage treatment [5]: not significantly degraded or absorbed

O=C(O)c1ccccc1O [salicylic acid]
biodegradability [6]: biodegradable

Cc1cccc(N(C)C(=S)Oc2ccc3ccccc3c2)c1 [tolnaftate]
light sensitivity [1]: light sensitive

C[C@@H](O)[C@H]1C(=O)N2C(C(=O)O)=C(S[C@@H]3CN[C@H](C(=O)N(C)C)C3)[C@H](C)[C@H]12 [meropenem]
biodegradability in the CBT [3]: None of the test compounds met the criteria for ready biodegradability

Nc1ccn([C@@H]2O[C@H](CO)[C@@H](O)C2(F)F)c(=O)n1 [gemcitabine]
degree of biodegradation, test prolonged ([2]; prolonged to 40 days, test read from the sentence before): 80%
biodegradation in the CBT, test prolonged [3]: 45%

CC(=O)Nc1c(I)c(NC(C)=O)c(I)c(C(=O)O)c1I [diatrizoate]
degradation or absorption during sewage treatment [5]: not significantly degraded or absorbed

CN/C(=N/CCSCc1nc[nH]c1C)NC#N [cimetidine]
direct photolysis [7]: resistant to direct photolysis

CN(C)CCn1nnnc1SCC1=C(C(=O)O)N2C(=O)[C@@H](NC(=O)Cc3csc(N)n3)[C@H]2SC1 [cefotiam]
biodegradability in the CBT [3]: None of the test compounds met the criteria for ready biodegradability

C=C[C@H]1C[N@@]2CC[C@H]1C[C@H]2[C@H](O)c1ccnc2ccc(OC)cc12 [quinine sulfate]
predicted sorption potential [8]: high capacity to bind to solids

Cc1cccc(Nc2ccccc2C(=O)O)c1C [mefenamic acid]
predicted sorption potential [8]: high capacity to bind to solids

CN(C(=O)CO)c1c(I)c(C(=O)NCC(O)CO)c(I)c(C(=O)NCC(O)CO)c1I (stereo not shown) [iomeprol]
degradation or absorption during sewage treatment [5]: not significantly degraded or absorbed

O=C(O)c1cn(C2CC2)c2cc(N3CCNCC3)c(F)cc2c1=O [ciprofloxacin]
biodegradability [9]: none of the compounds were biodegraded
biodegradability in the CBT [3]: None of the test compounds met the criteria for ready biodegradability

S=C1SCN(Cc2ccccc2)CN1Cc1ccccc1 [sulbentine]
light sensitivity [1]: light sensitive

CC(C)Cc1ccc(C(C)C(=O)O)cc1 (stereo not shown) [ibuprofen]
biological degradation ([10]; oxic biofilm reactor): high degree of degradation
biological degradation [10, 15]: partially degraded

CC(=O)Nc1ccc(O)cc1 [paracetamol]
biodegradability [6]: biodegradable

Oc1cc(Cl)ccc1Oc1ccc(Cl)cc1Cl [triclosan, 2,4,4′-trichloro2′-hydroxyphenyl ether]
overall elimination rate due to photochemical degradation [11]: 0.03 day⁻¹
fate: biological degradation [12]: 79%

CN(CC(O)CO)C(=O)c1c(I)c(N)c(I)c(C(=O)NCC(O)CO)c1I (stereo not shown) [5-amino-N,N′bis(2,3-dihydroxypropyl)-2,4,6-triiodo-N-methyliso-phthalamide]
photodegradation [4]: faster rate of photolysis than the parent compound

C[C@H](O)C(=O)Nc1c(I)c(C(=O)NC(CO)CO)c(I)c(C(=O)NC(CO)CO)c1I [iopamidol]
degradation or absorption during sewage treatment [5]: not significantly degraded or absorbed

O=C(O)Cc1ccccc1Nc1c(Cl)cccc1Cl [diclofenac]
degraded ([13]; entering a Swiss lake): up to 90%
reduction on incubation in the dark ([13]; fortified lake water): no reduction
biological degradation [10, 15]: partially degraded

O=S=O [sulfur dioxide]
fecal coliforms in treated effluent (fecal coliforms): < 2 MPN

O=P1(N(CCCl)CCCl)NCCCO1 (stereo not shown) [cyclophosphamide]
biodegradability in the ZWT [2]: poor biodegradability
biodegradability in the CBT [3]: poor biodegradability
biodegradability [14]: poor biodegradability

Reference: patent publication US8580122B2, “Hybrid chemical/mechanical method and apparatus for inactivating and removing pharmaceuticals and other contaminants from water” (priority 2004, dated 2013)
